Source: patent US20220235057A1, “CYCLIC FORMYL AND CYCLIC KETONE COMPOUNDS, PREPARATION METHOD THEREFOR, AND PHARMACEUTICAL USE” (priority 2019, published 2022)

Tests used:
Type in all cases: cell-based
Zika virus (ZIKV) = assay: anti-Zika virus activity (inhibition rate); details: for inhibition at 11 µM / inhibition at 33 µM: Zika virus
Usutu virus (USUV) = assay: anti-Usutu virus activity (inhibition rate); details: for inhibition at 11 µM / inhibition at 33 µM: Usutu virus
[1] = test system: drug resistant strains of Acinetobacter baumannii; assay: anti-drug resistant strains of Acinetobacter baumannii (inhibition zone)
[2] = resistant strain of Acinetobacter baumannii no. 16
[3] = resistant strain of Acinetobacter baumannii no. 17
[4] = resistant strain of Acinetobacter baumannii no. 18
[5] = resistant strain of Acinetobacter baumannii no. 19
[6] = resistant strain of Acinetobacter baumannii no. 20

Structure (SMILES)	inhibition at 11 µM (Zika virus (ZIKV); Drug concentration 11 μM)	inhibition at 11 µM (Usutu virus (USUV); Drug concentration 11 μM)	inhibition at 33 µM (Usutu virus (USUV); Drug concentration 33 μM)	inhibition zone, diameter [1, 2]	inhibition zone, diameter [1, 3]	inhibition zone, diameter [1, 4]	inhibition zone, diameter [1, 5]	inhibition zone, diameter [1, 6]	further results
COc1ccc(CC2N(Nc3ccccc3)C(=O)C3CCc4ccccc4N32)cc1OC (stereo not drawn) [ZXD-140]	0 to 100%	< 0%	> 100%	–	–	–	–	–	–
O=C1[C@@H]2CCc3ccccc3N2C(c2ccc([N+](=O)[O-])c(O)c2)N1Nc1ccccc1 (stereo partly drawn) [ZXD-95]	0 to 100%	< 0%	0 to 100%	–	–	–	–	–	–
O=C1C2CCc3ccccc3N2[C@@H](c2cc3ccccc3s2)N1Nc1ccccc1 (stereo partly drawn) [ZXD-178B]	> 100%	0 to 100%	–	–	–	–	–	–	–
O=C1[C@@H]2Cc3ccccc3N2[C@@H](c2ccc([N+](=O)[O-])cc2)N1NS(=O)(=O)c1ccc([N+](=O)[O-])cc1 [ZDL-38]	< 0%	< 0%	0 to 100%	–	–	–	–	–	inhibition at 33 µM (Zika virus (ZIKV); Drug concentration 33 μM): < 0%
O=C1C2CCc3ccccc3N2[C@@H](c2cccc3nonc23)N1Nc1ccccc1 (stereo partly drawn) [ZXD-181A]	–	–	–	–	–	–	–	–	Anti-ZIKV activity (inhibition rate) (Zika virus (ZIKV); Drug concentration 11 μM): +++ (+++: Complete suppression); Anti-ZIKV activity (inhibition rate) (Zika virus (ZIKV); Drug concentration 33 μM): +++ (+++: Complete suppression); Anti-USUV activity (inhibition rate) (Usutu virus (USUV); Drug concentration 11 μM): − (−: Inactive); Anti-USUV activity (inhibition rate) (Usutu virus (USUV); Drug concentration 33 μM): + (+: Partial suppression)
COc1ccc(C2N(c3ccc([N+](=O)[O-])cc3)C(=O)[C@@H]3Cc4ccccc4CN23)cc1OC (stereo partly drawn) [ZSD-12B]	< 0%	< 0%	0 to 100%	–	–	–	–	–	inhibition at 33 µM (Zika virus (ZIKV); Drug concentration 33 μM): < 0%
O=C1[C@@H]2Cc3ccccc3N2[C@@H](c2ccc([N+](=O)[O-])cc2)N1Nc1ccccc1 [ZDL-19]	< 0%	< 0%	> 100%	–	–	–	–	–	inhibition at 33 µM (Zika virus (ZIKV); Drug concentration 33 μM): 0 to 100%
Cn1cnc(C(=O)NNc2ccc(F)cc2)c1 [ZBM-29]	–	–	–	51 mm	68 mm	48 mm	68 mm	68 mm	–
O=C(NNc1ccc(F)cc1)C1CCc2ccccc2N1 (stereo not drawn) [ZXD-F]	–	–	–	65 mm	68 mm	68 mm	68 mm	68 mm	–
CC1(C)OB(c2ccc([C@H]3N(Nc4ccccc4)C(=O)C4CCCCN43)cc2)OC1(C)C (stereo partly drawn) [ZKD-15B]	–	–	–	67 mm	68 mm	40 mm	68 mm	68 mm	–
CC1(C)OB(c2ccc([C@@H]3N(Nc4ccccc4)C(=O)C4CCCCN43)cc2)OC1(C)C (stereo partly drawn) [ZKD-15A]	–	–	–	46 mm	50 mm	40 mm	68 mm	68 mm	–
O=C1C2CCCCN2[C@@H](c2ccco2)N1Nc1ccccc1 (stereo partly drawn) [ZKD-5B]	–	–	–	68 mm	48 mm	48 mm	55 mm	68 mm	–
COc1cc(CC2N(Nc3ccccc3)C(=O)C3CCCCN32)ccc1O (single isomer, unassigned) [ZKD-14B]	–	–	–	54 mm	53 mm	34 mm	68 mm	68 mm	–
O=C(NNc1ccc([N+](=O)[O-])cc1)[C@@H]1Cc2ccccc2CN1 [ZSD-15]	–	–	–	44 mm	40 mm	68 mm	68 mm	40 mm	–
COc1cc(CC2N(Nc3ccccc3)C(=O)C3CCCCN32)ccc1O (single isomer, unassigned) [ZKD-14A]	–	–	–	68 mm	68 mm	45 mm	64 mm	68 mm	–
O=C(NNc1ccc(F)cc1)[C@@H]1Cc2ccccc2CN1 [ZSD-54]	–	–	–	50 mm	58 mm	47 mm	68 mm	68 mm	–
